Earlier results in article PMC5228037, “Discovery and Mechanistic Characterization of Selective Inhibitors of H2S-producing Enzyme: 3-Mercaptopyruvate Sulfurtransferase (3MST) Targeting Active-site Cysteine Persulfide” (Scientific Reports, 2017).

Tests used:
3MST = settings: cited from earlier work; for Inhibition constant Ki for 3MST: substrate-like inhibitors
[1] = set-up: method as in PMID 26269587; settings: cited from earlier work

SMILES | Inhibition constant Ki for 3MST (3MST) | also measured
O=C(O)C(=O)CS [3MP, 3-mercaptopyruvate] | – | Km (3MST; substrate, read-out: Michaelis constant Km for 3MST): 4.08 mM
CC(=O)C(=O)O [pyruvate] | several | –
N[C@@H](CSS)C(=O)O [cysteine persulfide] | – | calculated pKa [1]: 4.34
O=C(O)CCS [3-mercaptopropionic acid] | several | –
